Measurements from patent publication US9060991B2, “Use of GLP-1 analogues for the treatment of disorders associated with dysfunctional synaptic transmission” (Innovation Ulster Limited, priority 2007, dated 2015).
Where no end group is shown, it is not given here.

Columns and labels:
Assay type in all cases: in vivo, Male Wistar rats
[1] = test system: long-term potentiation of synaptic transmission (EPSP slope, CA1 region of hippocampus); experiment: LTP in hippocampal CA1 after icv GLP-1 peptides, weak HFS protocol; conditions: 15 nmol in 5 μl icv, LTP induced 30 min post-injection (time not given for FIG. 3A)
Description: (§1) Male Wistar rats weighing 220-280 g were anaesthetised with urethane (ethyl carbamate, 1.8 g/kg, intraperitoneal, (i.p.)) for the duration of all experiments. The animals had been obtained from Harlan, United Kingdom (UK). A cannula (22 gauge, 0.7 mm outer diameter, 11 mm in length, Bilaney, Kent, UK) was implanted (1.5 mm anterior to bregma, 0.5 mm lateral to the midline and 3.55 mm ventral) into the left hemisphere for intracerebroventricular (icv) injections. Electrodes (tungsten with Teflon® coating, Bilaney, Kent, UK) were implanted unilaterally 3.4 mm posterior and 2.5 mm lateral to the midline, and the stimulating electrode 4.2 mm posterior to bregma and 3.8 mm lateral to the midline. […] Recordings of EPSPs were made from the stratum radiatum in the CA1 region of the right hippocampal hemisphere in response to stimulation of the Schaffer collateral/commissural pathway. Field EPSPs were recorded on a computerised stimulating and recording unit (PowerLab, ADI instruments, UK) in which the trigger threshold was adjustable. The triggered unit activated a constant current stimulus isolation unit (Neurolog, UK). The data acquisition system was triggered simultaneously to record all events. Sampling speed was at 20 kHz recording of EPSPs.
(§2) The ‘strong’ high frequency stimulation (HFS) protocol for inducing long-term potentiation (LTP) consisted of 3 trains of 200 stimuli, inter-stimulus interval 5 ms (200 Hz), inter-train interval 2 sec. […] The ‘weak’ HFS protocol for inducing LTP consisted of 10 trains of 10 stimuli, inter-stimulus interval 5 ms (200 Hz). The strong HFS was used to test the effects of peptides that impair LTP (beta-amyloid), and the weak HFS was used to test peptides that facilitate LTP. In this form of LTP, the control group is not potentiated at a maximal rate, and LTP can decay slowly over time. Stimulation intensity was 70% of the maximum EPSP. LTP was measured as % of baseline EPSP slope recorded over a 30 min period prior to drug injection and 60 min prior to application of HFS. Baseline was recorded for 30 min and averaged. This value was taken as 100% of the EPSP slope and all recoded values were normalised to this baseline value. All experiments were licensed according to UK Home Office regulations, and the “Principles of laboratory animal care” (NIH publication No. 86-23, revised 1985) were followed.
Beta-amyoid (25-35) and other peptides used in this study were synthesised on an Applied Biosystems automated peptides synthesiser (Model 432A) using standard solid-phase Fmoc protocols. Peptides were judged pure by reversed phase HPLC on a waters Millenium 2010 chromatography system, and peptides were subsequently characterised using matrix-assisted laser desorption/ionisation time of flight (MALDI-TOF) mass spectrometry as described previously (Gengler et al., 2006; Hölscher et al., 2007). Peptides were stored in dry form and dissolved in double distilled water before the experiments. 5 μl of peptides solution was injected icv.
(§3) Each group consisted of 6 animals. Data were analysed using a repeated measures two-way ANOVA, or a repeated measures three level two-way ANOVA with post-hoc tests to discriminate between groups (PRISM, GraphPad software Inc; USA). […]
Male Wistar rats were icv injected with either vehicle (Control,) or 15 nmol Val(8)GLP-1 (♦). LTP was induced 30 min post-injection using the HFS (weak protocol), and the change in EPSP assessed and graphed to represent the change in LTP (FIG. 3B). […]

[2] = test system: long-term potentiation of synaptic transmission (EPSP slope, CA1 region of hippocampus); experiment: Val(8)GLP-1 against beta-amyloid(25-35)-induced impairment of LTP; conditions: for impairing effect of beta-amyloid on LTP: LTP induced 15 min post-βA injection
Description: as §1, §2
Beta-amyoid (25-35) and other peptides used in this study were synthesised on an Applied Biosystems automated peptides synthesiser (Model 432A) using standard solid-phase Fmoc protocols. […]
as §3

[3] = test system: long-term potentiation of synaptic transmission (EPSP slope, CA1 region of hippocampus); experiment: LTP in hippocampal CA1 after icv beta-amyloid(25-35), strong HFS protocol; conditions: LTP induced 15 min post-injection, control = scrambled peptide
Description: Male Wistar rats weighing 220-280 g were anaesthetised with urethane (ethyl carbamate, 1.8 g/kg, intraperitoneal, (i.p.)) for the duration of all experiments. The animals had been obtained from Harlan, United Kingdom (UK). A cannula (22 gauge, 0.7 mm outer diameter, 11 mm in length, Bilaney, Kent, UK) was implanted (1.5 mm anterior to bregma, 0.5 mm lateral to the midline and 3.55 mm ventral) into the left hemisphere for intracerebroventricular (icv) injections. Electrodes (tungsten with Teflon® coating, Bilaney, Kent, UK) were implanted unilaterally 3.4 mm posterior and 2.5 mm lateral to the midline, and the stimulating electrode 4.2 mm posterior to bregma and 3.8 mm lateral to the midline. […] Field EPSPs were recorded on a computerised stimulating and recording unit (PowerLab, ADI instruments, UK) in which the trigger threshold was adjustable. […]
The ‘strong’ high frequency stimulation (HFS) protocol for inducing long-term potentiation (LTP) consisted of 3 trains of 200 stimuli, inter-stimulus interval 5 ms (200 Hz), inter-train interval 2 sec. […] LTP was measured as % of baseline EPSP slope recorded over a 30 min period prior to drug injection and 60 min prior to application of HFS. Baseline was recorded for 30 min and averaged. […]
LTP was induced 15 min post-injection using the HFS (strong protocol), and the change in EPSP assessed and graphed to represent the change in LTP (FIG. 2). […]

Asp(7)GLP-1: analogue of human GLP-1 with Asp at position 7, SEQ ID NO: 3 (DAEGTFTSDVSSYLEGQAAKEFIAWLVKGR; Synthetic peptide analogue derived from human GLP-1)
effect on LTP (change in EPSP) versus control [1]: enhanced long-term potentiation (LTP) compared with control

GLP-1(7-36)amide: the natural hormone GLP-1(7-36)amide (HAEGTFTSDVSSYLEGQAAKEFIAWLVKGR-NH2; listed as Homo sapiens) [reference compound]
effect on LTP (change in EPSP) versus control [1]: difference between the GLP-1(7-36)amide group and control

GLP-1(9-36)amide [reference compound]
effect on LTP (change in EPSP) versus control [1]: no difference between the GLP-1(9-36)amide group and the control group

Pro(9)GLP-1: analogue of human GLP-1 with Pro at position 9, SEQ ID NO: 5 (HAPGTFTSDVSSYLEGQAAKEFIAWLVKGR; Synthetic peptide analogue derived from human GLP-1)
effect on LTP (change in EPSP) versus control [1]: enhanced long-term potentiation (LTP) compared with control

Val(8)GLP-1: analogue of human GLP-1 with Val at position 8, SEQ ID NO: 4
impairing effect of beta-amyloid on LTP ([2]; Val(8)GLP-1 15 nmol icv 15 min before beta-amyloid(25-35) 100 nmol icv): not significantly affected, but a trend became visible | impairing effect of beta-amyloid on LTP ([2]; Val(8)GLP-1 15 nmol icv 30 min before beta-amyloid(25-35) 100 nmol icv): completely reversed | impairing effect of beta-amyloid on LTP ([2]; Val(8)GLP-1 15 nmol icv simultaneously with beta-amyloid(25-35) 100 nmol icv): not affected | effect on LTP (change in EPSP) versus control [1]: can enhance the induction of LTP

βA(25-35): beta-amyloid fragment 25-35, peptide that impairs LTP (GSNKGAIIGLM; Amyloid-beta protein 42; UniProt P05067 696-706, looked up, fragment)
effect on LTP (change in EPSP) versus control ([3]; 10 nmol icv): difference between the 10 nmol group and control | effect on LTP (change in EPSP) versus control ([3]; 100 nmol icv): difference between the 100 nmol group and control | effect on LTP (change in EPSP) versus vehicle control ([2]; beta-amyloid(25-35) alone, 100 nmol icv, LTP induced 15 min post-injection, FIG. 4A-4C experiments): difference between the beta-amyloid(25-35) group and control
